Experimental data published in patent US6110955A, “Metabolically stabilized oxyalkylene esters and uses thereof” (Beacon Laboratories, Inc., priority 1997, dated 2000).
“Also recorded” adds a separate entry of the source.

Columns and labels:
[1] = test system: mitochondrial β-oxidation of fatty acids; settings: cited from earlier work
CFPAC = assay: Inhibition of cancer cell growth, sulforhodamine B (SRB) method; assay type: cell-based; settings: Homo sapiens
Description: (§1) Inhibition of cancer cell growth was measured by the sulforhodamine B (SRB) method as described by Monks et al., J. Nat. Canc. Inst., (1991), 83: 757-766, incorporated herein in its entirety. The SRB assay is recognized by the National Institute for Cancer (NCI) as a reliable screen for anticancer drugs and is used by the NCI for this purpose. […] (FIGS. 3A-3D).

OVCAR-5 = assay: as above; assay type: cell-based; settings: Homo sapiens
Description: as §1

LOX IMVI = assay: as above; assay type: cell-based; settings: Homo sapiens
Description: as §1

MCF7 = assay: as above; assay type: cell-based; settings: Homo sapiens
Description: as §1

[2] = test system: human neuroblastoma cell lines; assay: Clonogenicity across the neuroblastoma cell lines (summary); assay type: cell-based
Description: (§2) Inhibition of cancer cell growth in agar culture--clonogenicity was tested using cell lines as follows:
(§3) Cells were harvested, washed in complete media, and counted.
(§4) After overnight culture, AB or α-methyl-4-(2-methylpropyl)-benzeneacetyloxymethyl butyrate was added at the indicated concentration. The control cells received media alone.

[3] = In vitro stability in human blood; assay type: in vitro ADME; settings: whole human blood, radiolabelled, read-out: calculated half time
Description: Radiolabelled Compound 1 (5 μCi) was added to 1 mL of whole human blood and allowed to stand for various times. The samples were quenched with acetonitrile and prepared as previously described.

[4] = test system: human pancreatic, ovarian, breast carcinoma and melanoma cell lines; assay: Inhibition of cancer cell growth, SRB method (summary over cell lines); assay type: cell-based; settings: compared with AB
Description: as §1

SMS-KCN = assay: Clonogenicity in soft agar (growth inhibition); assay type: cell-based, human
Description: as §2, §3, §4

SK-N-MC = assay: Clonogenicity in soft agar (growth inhibition); assay type: cell-based, human
Description: as §2, §3, §4

SMS-KAN = assay: Clonogenicity in soft agar (growth inhibition); assay type: cell-based, human
Description: as §2, §3, §4

IMR-32 = assay: Clonogenicity in soft agar (growth inhibition); assay type: cell-based, human
Description: as §2, §3, §4

LA1-5S = assay: Clonogenicity in soft agar (growth inhibition); assay type: cell-based, human
Description: as §2, §3, §4

NGP = assay: Clonogenicity in soft agar (growth inhibition); assay type: cell-based, human
Description: as §2, §3, §4

SK-N-SH = assay: Clonogenicity in soft agar (growth inhibition); assay type: cell-based, human
Description: as §2, §3, §4

NBAS-5 = assay: Clonogenicity in soft agar (growth inhibition); assay type: cell-based, human
Description: as §2, §3, §4

NBL-W-N = assay: Clonogenicity in soft agar (growth inhibition); assay type: cell-based, human
Description: as §2, §3, §4

NBL-S = assay: Clonogenicity in soft agar (growth inhibition); assay type: cell-based, human
Description: as §2, §3, §4

## O=C(O)c1ccccc1O [salicylic acid]
[1]
  mitochondrial β-oxidation of fatty acids: decrease mitochondrial β-oxidation of fatty acids

## CC(C)Cc1ccc(C(C)C(=O)O)cc1 (stereo not drawn) [ibuprofen]
[1]
  mitochondrial β-oxidation of fatty acids: decrease mitochondrial β-oxidation of fatty acids

## CCCC(CCC)C(=O)O [valproic acid]
[1]
  mitochondrial β-oxidation of fatty acids: decrease mitochondrial β-oxidation of fatty acids

## CN1c2ccccc2C(NCCCCCCC(=O)O)c2ccc(Cl)cc2S1(=O)=O (stereo not drawn) [tianeptine]
[1]
  mitochondrial β-oxidation of fatty acids: decrease mitochondrial β-oxidation of fatty acids

## CCCC(=O)OCOC(=O)C(C)c1ccc(CC(C)C)cc1 (stereo not drawn) [Compound 1, α-methyl-4-(2-methylpropyl)-benzeneacetyloxymethyl butyrate]
CFPAC; dosage 0.03125 nM
  inhibition at 31.25 pM: 0%
CFPAC; dosage 0.06250 nM
  inhibition at 62.5 pM: 0.1%
CFPAC; dosage 0.12500 nM
  inhibition at 0.000125 µM: 1.1%
CFPAC; dosage 0.25000 nM
  inhibition at 0.00025 µM: 0%
CFPAC; dosage 0.50000 nM
  inhibition at 0.0005 µM: 93.3%
CFPAC; dosage 1.00000 nM
  inhibition at 0.001 µM: 94.9%
CFPAC; dosage 2.00000 nM
  inhibition at 0.002 µM: 96%
CFPAC; dosage 4.00000 nM
  inhibition at 0.004 µM: 97.4%
OVCAR-5; OVCAR-5, dosage 0.03125 nM
  inhibition at 31.25 pM: 0%
OVCAR-5; OVCAR-5, dosage 0.06250 nM
  inhibition at 62.5 pM: 0.3%
OVCAR-5; OVCAR-5, dosage 0.12500 nM
  inhibition at 0.000125 µM: 0.5%
OVCAR-5; OVCAR-5, dosage 0.25000 nM
  inhibition at 0.00025 µM: 0%
OVCAR-5; OVCAR-5, dosage 0.50000 nM
  inhibition at 0.0005 µM: 0.9%
OVCAR-5; OVCAR-5, dosage 1.00000 nM
  inhibition at 0.001 µM: 39.7%
OVCAR-5; OVCAR-5, dosage 2.00000 nM
  inhibition at 0.002 µM: 99.8%
OVCAR-5; OVCAR-5, dosage 4.00000 nM
  inhibition at 0.004 µM: 95.1%
LOX IMVI; dosage 0.03125 nM
  inhibition at 31.25 pM: 0%
LOX IMVI; dosage 0.06250 nM
  inhibition at 62.5 pM: 0.1%
LOX IMVI; dosage 0.12500 nM
  inhibition at 0.000125 µM: 1.5%
LOX IMVI; dosage 0.25000 nM
  inhibition at 0.00025 µM: 0%
LOX IMVI; dosage 1.00000 nM
  inhibition at 0.001 µM: 94.9%
LOX IMVI; dosage 2.00000 nM
  inhibition at 0.002 µM: 96%
LOX IMVI; dosage 4.00000 nM
  inhibition at 0.004 µM: 97.4%
MCF7; MCF7, dosage 0.03125 nM
  inhibition at 31.25 pM: 0%
MCF7; MCF7, dosage 0.06250 nM
  inhibition at 62.5 pM: 0%
MCF7; MCF7, dosage 0.12500 nM
  inhibition at 0.000125 µM: 0%
MCF7; MCF7, dosage 0.25000 nM
  inhibition at 0.00025 µM: 1.1%
MCF7; MCF7, dosage 0.50000 nM
  inhibition at 0.0005 µM: 57.8%
MCF7; MCF7, dosage 1.00000 nM
  inhibition at 0.001 µM: 99.3%
MCF7; MCF7, dosage 2.00000 nM
  inhibition at 0.002 µM: 98.9%
MCF7; MCF7, dosage 4.00000 nM
  inhibition at 0.004 µM: 98.7%
[2]
  inhibition of clonogenicity (in words): dose-dependent manner
[2]; compared with AB
  sensitivity / potency relative to AB (in words): mostly an order of magnitude more sensitive; also recorded: significantly more potent tumor cell clonogenicity inhibitor than AB
[2]; over the cell lines
  ratio between the IC50 of AB/Compound 1, "maiden" value: 16
  ratio between the IC50 of AB/Compound 1, range: 7-63 fold
  ratio between the IC90 of AB/Compound 1, "maiden" value: 32
  ratio between the IC90 of AB/Compound 1, range: 7-434
[3]
  half-life: ~20.8 min
[4]
  greater activity than that of AB: at least 100 fold
SMS-KCN
  AB/Compound 1 (IC50 ratio): 15.86
SMS-KCN; Homo sapiens
  IC50: 118 µM
SK-N-MC
  AB/Compound 1 (IC50 ratio): 9
  AB/Compound 1 (IC90 ratio): 887
SK-N-MC; Homo sapiens
  IC50: 24 µM
  IC90: 148 µM
SMS-KAN
  AB/Compound 1 (IC50 ratio): 14.7
  AB/Compound 1 (IC90 ratio): 7.2
SMS-KAN; Homo sapiens
  IC50: 77 µM
  IC90: 289 µM
IMR-32; Homo sapiens, IMR-32
  IC50: 15 µM
  IC90: 32 µM
IMR-32; Homo sapiens, IMR-32, 10 μM, read-out: clones relative to media-treated control cultures
  activity at 10 µM: 71 ± 10%
IMR-32; Homo sapiens, IMR-32, 20 μM, read-out: clones relative to media-treated control cultures
  activity at 20 µM: 46 ± 8%
IMR-32; Homo sapiens, IMR-32, 50 μM, read-out: clones relative to media-treated control cultures
  activity at 50 µM: 3 ± 1%
IMR-32; Homo sapiens, IMR-32, 100 μM, read-out: clones relative to media-treated control cultures
  activity at 100 µM: 0%
IMR-32; Homo sapiens, IMR-32, 250 μM, read-out: clones relative to media-treated control cultures
  activity at 250 µM: 0%
IMR-32; IMR-32
  AB/Compound 1 (IC50 ratio): 59
  AB/Compound 1 (IC90 ratio): 111437
LA1-5S
  AB/Compound 1 (IC50 ratio): 56
  AB/Compound 1 (IC90 ratio): 31.8
LA1-5S; Homo sapiens
  IC50: 29 µM
  IC90: 84 µM
NGP
  AB/Compound 1 (IC50 ratio): 67.9
  AB/Compound 1 (IC90 ratio): 18.46
NGP; Homo sapiens
  IC50: 15 µM
  IC90: 87 µM
SK-N-SH
  AB/Compound 1 (IC50 ratio): 63.37
  AB/Compound 1 (IC90 ratio): 87
SK-N-SH; Homo sapiens
  IC50: 16 µM
  IC90: 39 µM
SK-N-SH; Homo sapiens, 10 μM, read-out: clones relative to media-treated control cultures
  activity at 10 µM: 66%
SK-N-SH; Homo sapiens, 20 μM, read-out: clones relative to media-treated control cultures
  activity at 20 µM: 50%
SK-N-SH; Homo sapiens, 50 μM, read-out: clones relative to media-treated control cultures
  activity at 50 µM: 5%
SK-N-SH; Homo sapiens, 100 μM, read-out: clones relative to media-treated control cultures
  activity at 100 µM: 1%
SK-N-SH; Homo sapiens, 250 μM, read-out: clones relative to media-treated control cultures
  activity at 250 µM: 0%
NBAS-5; Homo sapiens, NBAS-5
  IC50: 15 µM
  IC90: 30 µM
NBAS-5; Homo sapiens, NBAS-5, 10 μM, read-out: clones relative to media-treated control cultures
  activity at 10 µM: 76 ± 7%
NBAS-5; Homo sapiens, NBAS-5, 20 μM, read-out: clones relative to media-treated control cultures
  activity at 20 µM: 27 ± 15%
NBAS-5; Homo sapiens, NBAS-5, 50 μM, read-out: clones relative to media-treated control cultures
  activity at 50 µM: 3%
NBAS-5; Homo sapiens, NBAS-5, 100 μM, read-out: clones relative to media-treated control cultures
  activity at 100 µM: 0%
NBAS-5; Homo sapiens, NBAS-5, 250 μM, read-out: clones relative to media-treated control cultures
  activity at 250 µM: 0%
NBAS-5; NBAS-5
  AB/Compound 1 (IC50 ratio): 55.53
  AB/Compound 1 (IC90 ratio): 434
NBL-W-N
  AB/Compound 1 (IC50 ratio): 10.6
  AB/Compound 1 (IC90 ratio): 22.9
NBL-W-N; Homo sapiens
  IC50: 46 µM
  IC90: 134 µM
NBL-S
  AB/Compound 1 (IC50 ratio): 29.2
  AB/Compound 1 (IC90 ratio): 32.8
NBL-S; Homo sapiens
  IC50: 24 µM
  IC90: 61 µM
